{"source": "patent US20240158465A1", "about": "“METHOD FOR INDUCING AND DETECTING SOLUBLE LOX-1 (sLOX-1) IN CULTURED BLOOD CLOTS” (GEORGE MASON UNIVERSITY, priority 2022, published 2024)", "key": {"cultured clots [1]": {"test_system": "cultured clots", "assay": "Neutrophil elastase (NE) release to cultured clot serum", "format": "cell-based, human", "details": "cultured clot 4 h 37° C.; +10 mM bGP", "method": "FB=fresh blood; FC=fresh clot ([…] RT incubation); cC=cultured clot (4 h 37° C.; +LPS=cC+100 ng/mL LPS; +bGP=cC+10 mM bGP. This is enabling data for using the cultured clot system to screen drugs for the ability to inhibit neutrophil degranulation in an assay that uses minimally modified whole blood, by measuring the level of NE and/or PR3, or other granule factors (myeloperoxidase, cathepsin G, elastase, metalloproteinases, defensins) in treated versus untreated cultured clot serum."}, "cultured blood clots": {"test_system": "cultured blood clots", "assay": "sLox-1 shedding into cultured clot serum (ELISA)", "format": "cell-based, human", "details": "cultured clot 4 h, 37° C., vs cultured clot without additive, 100 ng/mL LPS, 10 mM bGP", "source_text": "This is the enabling data for beta glycerol phosphate and PMA treated blood clots.\nParallel analysis of IL-8/CXCL8 in the cultured clot serum can be used to document test article cytocompatibility. The absence of IL6 in donor fresh blood can be used to verify there is no sepsis or bacteremia, and lack of IL-6 induction in the cultured clot serum can be used to identify sterile inflammation and test article purity (lack of endotoxin response).\nIn an embodiment, cultured clots were spiked with LPS by injecting an LPS solution into the vacutainer tube immediately after blood collection and before clot formation. These LPS/cultured clots shed even more sLox-1 into the serum than the paired cultured clots without LPS, in line with the known effect of LPS and downstream mediators (TNF, IL1A) in stimulating Lox-1 expression. (FIG. 2).\nIn an embodiment, a precision medicine tool is developed that detects Lox-1 induction in an ex vivo thrombus and shedding of soluble Lox-1 (sLox-1) into the serum. The tool consists of a red vacutainer tube with as little as 0.5 mL and more ideally 3 or 4 mL of peripheral whole venous blood, that is placed for 4 hours at 37° C.\nThe optimized cultured clot system involves placing a red cap vacutainer tube with anionic clot-activator at 37° C. for 4 hours after which serum may be collected. Serum contains a mixture of barrier-reducing and barrier-enhancing factors."}, "cultured clots [2]": {"test_system": "cultured clots", "assay": "RT-PCR of transcript levels in cultured clots", "format": "cell-based, human", "details": "cultured clot 4 h, 37° C.", "method": "Lanes: 1. Fresh whole blood (PAXgene); 2. Fresh blood clot (45 min, RT); 3. Cultured clot (4 h, 37° C.); 4. LPS/cultured clot (4 h, 37° C.); 5. Beta-glycerol phosphate cultured clot (4 h, 37° C.); 6. Cultured heparin blood (4 h, 37° C.). OLR1 was induced in all cultured clots (4) and in all cultured clots+LPS ([…])."}, "cultured clots [3]": {"test_system": "cultured clots", "assay": "CXCL8/IL-8 and IL-6 protein in cultured clot serum", "format": "cell-based, human", "details": "cultured clot 4 h, 37° C.; for CXCL8/IL-8 protein in cultured clot serum: +100 ng/mL LPS or +10 mM bGP", "method": "[Key: FB: fresh blood plasma, cC: cultured clot (4 h, 37° C.), Norm: cultured clot under Normoxia, Hyp: cultured clot under Hypoxia, Hep: heparin blood culture (4 h, 37° C.), +LPS: +100 ng/mL lipopolysaccharide, +bGP: +10 mM disodium beta glycerol phosphate]."}, "HPAEC": {"test_system": "HPAEC", "assay": "TER assay of endothelial barrier function", "format": "cell-based, human", "source_text": "In FIG. 28 TER assay with HPAEC treated with 0.2 U/mL thrombin, 10% fresh serum, 10% cultured clot serum or 10% LPS/cultured clot serum produced by peripheral blood collected from 4 healthy donors (N=2 tests per condition for donors 1 and 2 and N=1 test per condition for combined samples from donors 3 and 4). Mean ±standard deviation (N=4 thrombin and N=5 for all other conditions)."}, "[4]": {"test_system": "HEK293 human Lox-1 overexpression system", "assay": "sLox-1 production in HEK293 human Lox-1 overexpression system", "format": "cell-based", "source_text": "Thrombin, for example, had no effect on sLox-1 production in our HEK293 human Lox-1 overexpression system. The enzymes responsible for sLox-1 shedding are under intense debate and not yet identified in neutrophils. Close scrutiny of PR3 leads hypothesize it is a novel neutrophil-specific sheddase of sLox-1. PR3 is harbored in azurophilic and secretory granules of neutrophils. Upon release, PR3 associates with the neutrophil cell surface via CD177 in cholesterol-rich lipid rafts where Lox-1 is located. PR3 activity is believed to preserve endothelial barrier function during neutrophil extravasation. […] One study used trypsin digestion during sample preparation. The proposed sLox-1 cleavage motif is missing an aliphatic P1′ residue used by ADAM10 and ADAM17 to recognize a substrate. By contrast, the human Lox-1 cleavage region (QISA87R88QQA) has a very striking match with the PR3 cleavage site in IL-8 (AVLPRSA↓RKEL). […] (Table 5). The published cleavage sites for sLox-1 in bovine and human produce a non-conserved sLox-1 N-terminus, with NH2-Glutamine for human and NH2-Serine for bovine (Table 5). […] Potentially harmful bystander elastase activity of PR3 [73] could be suppressed by high levels of alpha-1 antitrypsin or ceruloplasmin that we detected by LC-MS in plasma and serum."}, "sLox-1 shedding by cells": {"test_system": "sLox-1 shedding by cells", "details": "previous studies; cited from earlier work"}, "[5]": {"test_system": "heparinized anticoagulated blood", "assay": "Reversal of heparin anticoagulation to form viable cultured blood clots", "format": "cell-based", "details": "4 hours at 37° C.; chitosan 99% DDA, 3 kDa or 10 kDa", "source_text": "The degree of deacetylation is preferably from 90% to 100% and the molecular weight is preferably at least 3,000 Da and at most 500,000 Da."}, "endothelial cells": {"test_system": "endothelial cells", "details": "other studies; cited from earlier work"}}, "data": [{"compound": "O=P([O-])([O-])OC(CO)CO.[Na+].[Na+]", "note": "[bGP, disodium beta glycerol phosphate]", "values": [{"measurement": "neutrophil elastase (NE) release to serum", "setting": "cultured clots [1]", "value": "inhibited"}, {"measurement": "sLox-1 shedding into cultured clot serum", "setting": "cultured blood clots", "value": "suppressed"}, {"measurement": "sLox-1 shedding into cultured clot serum", "setting": "cultured blood clots; listed as phosphatase inhibitor", "value": "inhibited"}, {"measurement": "CXCL8/IL-8 expression (RT-PCR)", "setting": "cultured clots [2]; 10 mM", "value": "without suppressing"}, {"measurement": "TNF expression (RT-PCR)", "setting": "cultured clots [2]; 10 mM", "value": "specifically suppressed"}, {"measurement": "CXCL8/IL-8 protein in cultured clot serum", "setting": "cultured clots [3]", "value": "does not alter"}]}, {"compound": "CCCCCCCCCCCCCC(=O)O[C@@H]1[C@@H](C)[C@@]2(O)[C@@H](C=C(CO)C[C@]3(O)C(=O)C(C)=C[C@@H]23)[C@@H]2C(C)(C)[C@]12OC(C)=O", "note": "[PMA, phorbol myristate acetate]", "values": [{"measurement": "sLox-1 shedding into cultured clot serum", "setting": "cultured blood clots", "value": "enhanced"}]}, {"compound": "thrombin", "values": [{"measurement": "effect on endothelial barrier function", "setting": "HPAEC; 0.6 hours post-stimulation, vs control, fresh serum", "value": "transient loss of barrier function"}, {"measurement": "mean normalized resistance at 36 min", "setting": "HPAEC; HPAEC, 10% serum or 0.2 U/mL thrombin, 36 min, mean ± SD", "value": "0.48±0.03"}, {"measurement": "sLox-1 production", "setting": "[4]", "value": "no effect"}]}, {"compound": "lipopolysaccharide [LPS]", "values": [{"measurement": "sLox-1 shedding into cultured clot serum", "setting": "cultured blood clots", "value": "increased"}, {"measurement": "IL6 expression (RT-PCR)", "setting": "cultured clots [2]", "value": "induced"}, {"measurement": "IL-6 protein in cultured clot serum", "setting": "cultured clots [3]; +100 ng/mL LPS", "value": "elevated"}, {"measurement": "CXCL8/IL-8 protein in cultured clot serum", "setting": "cultured clots [3]", "value": "elevated"}]}, {"compound": "O=S(=O)(F)Cc1ccccc1", "note": "[PMSF, phenylmethylsulfonyl fluoride]", "values": [{"measurement": "sLox-1 shedding by exposed cells", "setting": "sLox-1 shedding by cells", "value": "reduced sLox-1 shedding"}]}, {"compound": "protamine", "values": [{"measurement": "reversal of heparin anticoagulation, forming viable cultured blood clots", "setting": "[5]", "value": "reverse heparin anticoagulation"}]}, {"compound": "CC(C)C[C@H](CC(=O)NO)C(=O)N[C@@H](Cc1ccc2ccccc2c1)C(=O)N[C@@H](C)C(=O)NCCN", "note": "[TAPI-1]", "values": [{"measurement": "sLox-1 shedding by exposed cells", "setting": "sLox-1 shedding by cells", "value": "reduced sLox-1 shedding"}]}, {"compound": "CC(C)c1nc(N(C)S(C)(=O)=O)nc(-c2ccc(F)cc2)c1/C=C/[C@@H](O)C[C@@H](O)CC(=O)O", "note": "[rosuvastatin]", "values": [{"measurement": "Lox-1 expression in endothelial cells", "setting": "endothelial cells", "value": "inhibited Lox-1 expression"}]}]}
